In data set [1] the test system is S. pseudintermedius canine isolate MRSP16. As to the kind of experiment: MIC, broth dilution. It is filed as cell-based, Staphylococcus pseudintermedius. How it is done: (§1) MIC determination. MICs were measured using peptides with 95% purity. For bacterial studies, cation-adjusted Mueller Hinton (MH) broth was used as the growth medium whereas Yeast Peptone Dextrose (YPD; 10 g/L yeast extract, 20 g/L peptone, 20 g/L dextrose) was used for Candida spp. and other yeast. Microorganisms were diluted to an optical density of […] in MH or YPD broth and a 180 μl volume was mixed with 20 μl of peptide arrayed as a 2-fold dilution series in a flat-bottom 96-well microtitre plate. A control was performed using 20 μl of sterile water. Plates were incubated as standing cultures overnight at 37° C.
(§2) Determination of minimum inhibitory concentrations. The MICs were measured for bioactive peptides identified from the initial screen. For bacterial studies, cation-adjusted Mueller Hinton (MH) broth was used as the growth medium whereas YPD was used for C. albicans. Bacterial cultures were diluted to a OD value of 6×10^−4 in MH broth and a 180 μl volume was mixed with 20 μl of peptide arrayed as 2-fold dilution series in a 96-well plate. For the positive control, 20 μl of sterile water was used. Plates were incubated as standing cultures overnight at 37° C. The lowest peptide concentration that resulted no observed microbial growth after an overnight treatment was defined as the MIC.

For data set [2], the system named is S. pseudintermedius canine isolate MRSP24. In words: MIC, broth dilution. It is filed as cell-based, Staphylococcus pseudintermedius. How it is done:
as §1, §2

The test system of data set [3] is S. pseudintermedius canine isolate MSSP42. As to the kind of experiment: MIC, broth dilution. It is filed as cell-based, Staphylococcus pseudintermedius. As for the experimental part:
as §1, §2

The test system of data set [4] is S. pseudintermedius human isolate SPC001 (MSSP). In words: MIC, broth dilution. It is filed as cell-based, Staphylococcus pseudintermedius. As for the experimental part:
as §1, §2
(Dilution methods test growth across graded concentrations, often in twofold steps.)

In data set [5] the test system is S. pseudintermedius human isolate SPC002 (MSSP). As to the kind of experiment: MIC, broth dilution. It is filed as cell-based, Staphylococcus pseudintermedius. As for the experimental part: as §1, §2
Data set [6] deals with S. pseudintermedius human isolate SPC020 (MSSR). As to the kind of experiment: MIC, broth dilution. It is filed as cell-based, Staphylococcus pseudintermedius. As for the experimental part: as §1, §2
Another data set deals with C. albicans MYA-2876. As to the kind of experiment: MIC, YPD broth. The conditions noted are these: Table 8. It is filed as cell-based, Candida albicans. The method, boiled down:
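Minimum inhibitory concentrations against Candida albicans were determined in YPD broth (10 g/L yeast extract, 20 g/L peptone, 20 g/L dextrose) using peptides of 95% purity. A 180 μl volume of diluted yeast was combined with 20 μl of peptide in a 2-fold dilution series in 96-well plates, with sterile water as control, then incubated standing overnight at 37° C.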

The next data set has as its system C. albicans Y537. As to the kind of experiment: MIC, YPD broth. It is filed as cell-based, Candida albicans. To be noted: Table 8.
In another data set the test system is panel of 7 MRSA strains. It is filed as cell-based, Staphylococcus aureus. How it is done:
The antibiotic effect of STIP3-29 was bactericidal (FIG. 3). […] Some proportion of bacterial cells escaped treatment, remaining dormant. Indeed, strain-dependent persister cells, capable of escaping a variety of therapeutic agents, have been described for S. aureus^47.
Measurement of bactericidal activity. […] For S. aureus, an overnight culture was diluted to an OD of 5×10^−7 in 2 ml of MH broth supplemented with the appropriate concentration of peptide. Sterile water was added to control cultures. Standing cultures were incubated at 37° C. and 100 μl volume aliquots were removed at 60 min time intervals for 8 h. These aliquots were plated on agar plates to measure the colony forming units (CFUs) that remained viable upon treatment. Control aliquots from the same time intervals were diluted before plating to accurately enumerate increasing CFU counts. Counts were performed from plates that were incubated at 37° C. overnight. A plot of CFU/ml against time was used to illustrate and evaluate the time dependent killing. The same procedure was followed for C. albicans except that YPD broth and a cultivation temperature of 30° C. was employed.

Data set [7] is described as follows: Circular dichroism spectroscopy. It is filed as physicochemical. To be noted: CD, 50% (v/v) TFE. The method, boiled down: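 Secondary structure of peptides dissolved in water at 0.3–0.5 mg/mL was assessed by CD. Spectra were recorded from 180 to 260 nm at room temperature in a 0.1 cm quartz cuvette; water and 50% (v/v) TFE conditions were compared.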
A further data set has as its system MRSA ATCC 33592. As to the kind of experiment: DiSC3(5) membrane polarization assay. The conditions noted are these: 1.56 to 25 μg/mL. It is filed as cell-based, Staphylococcus aureus. As for the experimental part: Membrane disruption and depolarization are commonly reported mechanisms of AMP action. Two indirect assays that rely on fluorescent dyes were employed to assess the interaction of STIP3-29 and D-STIP3-29 with bacterial membranes. First, changes to SYTOX fluorescence was measured when MRSA ATCC 33592 was treated with increasing peptide concentrations ranging from one fourth to four-fold the MIC. […] Next, DiSC3(5), a cationic dye that binds to polarized membranes was used to report on possible depolarization related to AMP treatment. […] Thus, without wishing to be bound by theory, a more conservative explanation of the results is that the cationic peptides increase membrane permeability to SYTOX and that the like-charge of the AMPs to the reporter of polarization may confound the interpretation of the indirect assay. For example, the AMPs may simply displace the self-quenching DiSC3(5) molecules from the membrane surface without causing depolarization.

A further data set deals with 3D EpiDerm skin tissues. In words: Peptide cytotoxicity, 3D EpiDerm skin tissues, alamarBlue. It is filed as cell-based, human. To be noted: 250 μg/mL, 24 h. How it is done:
Peptide cytotoxicity. In vitro cytotoxicity was measured using the 3D EpiDerm skin tissues and HeLa Cells using a fluorescent reporter of cell viability, alamarBlue (ThermoFisher Scientific). 3D EpiDerm skin tissues (MatTek EPI-200-AFAB) were transferred to a 12 well plate containing 600 μL of AFAB-assay medium supplemented with 10% v/v alamarBlue. […] HeLa cells were seeded in a 96-well plate (2×10^4 cells/per well) and incubated overnight at 37° C. and 5% CO2 in a humidified incubator to prepare wells at ˜50% confluency of adherent cells. After the incubation, spent DMEM was removed and cells were washed with PBS. alamarBlue-containing medium was prepared by mixing Phenol Red-free DMEM with alamarBlue solution at a 9:1 ratio and a 180 μl volume was added to each well. Cells were treated with peptides varying from 3.25 to 200 μg/mL and then incubated for 24 h. The fluorescence intensities of treated cultures were normalized to values measured for an untreated control group. After the 24 h incubation period, alamarBlue fluorescence was measured at 590 nm upon excitation at 560 nm using Varioskan Lux plate reader (Thermo Scientific) plate reader.

The values below come from patent publication US12370235B2, “Synthetic, non-natural antimicrobial peptides inspired by Staphylococcus auricularis delta toxin” (University of Saskatchewan, priority 2021, dated 2025).

Ends that are not written are not given here.

Regarding “TVGGLVKWILKTVKKFA-NH2 [STIP3-29, TVGGLVKWILKTVKKFA-NH2]”, the minimal inhibitory concentration (MIC) in data set [1], in [2], in data set [3], in data set [4], in [5] and in data set [6] was 3.13 µg/mL throughout. Besides, in the data set with C. albicans MYA-2876, the “MIC C. albicans MYA-2876” value was 12.5 µg/mL. Moreover, in the data set with C. albicans Y537, the “MIC C. albicans Y537” value was determined as 25 µg/mL. Besides, in the data set on panel of 7 MRSA strains (12.5 μg/mL (2-fold MIC), within the first 4 hours, panel of 7 MRSA strains), the treated bacteria killed was roughly 99%. Further, the antibiotic effect result with panel of 7 MRSA strains (in words) is given as “bactericidal”. Also, the “α helicity (%)” value in data set [7] was 61%. Further, the “DiSC3(5) fluorescence change” value in the data set with MRSA ATCC 33592 is “dose-dependent increase in fluorescence”. Further, the “indirect measure of tissue health (alamarBlue)” value in the data set on 3D EpiDerm skin tissues is given as “appeared to be unaffected”.

Broadly, the MIC is the lowest concentration found to suppress growth. A low value points to greater potency.
